Measurements taken from a melting point compilation (Tetko et al.; mined from patent text by program, amines drawn as free bases though some values may be those of a salt).

| Compound | melting point [°C] |
| --- | --- |
| CC1(C)C(C#CC(=O)OCC2CC2)C1C(=O)OC(C#N)c1cccc(Oc2ccccc2)c1 (configuration not stated) | 72 |
| COc1ccccc1C1c2cc(NC(=O)CC(C)(C)C)c(C)c(C)c2OC1(C)C (configuration not stated) | 169 to 170 |
| CN1CCN(C2=Nc3cc(Cl)ccc3Oc3cscc32)CC1 | 180 to 182 |
| CC(C)(C)c1cc(C(=NO)c2ccccc2)cc(C(C)(C)C)c1O | 151 |
| CCN1C[C@H](CN2CCN(C(c3ccccc3)c3ccccc3)CC2)C[C@@H]2c3cccc4[nH]cc(c34)C[C@H]21 | 203 to 205 |
| CC(NS(=O)(=O)N1CCOCC1)P(=O)(c1ccccc1)c1ccccc1 (configuration not stated) | 215 to 217 |
| Cc1cc(N=CN(C)C)nc(-c2ccc([N+](=O)[O-])o2)n1 | 176 to 178 |
| Cn1c(C(F)(F)F)cc(=O)n(-c2cc(OCCC3OCCCO3)c(Cl)cc2F)c1=O | 128 to 130 |
| Cc1c(-c2c[nH]cc2C#N)cccc1C(F)(F)F | 99 to 100 |
| N#CC[C@H](O)Cc1cc2ccccc2[nH]1 | 92 to 93 |
| N#Cc1cccnc1N1CCN(CC(=O)Nc2ccccc2[N+](=O)[O-])CC1 | 134 to 136 |
| Cc1nccc2[nH]c(=O)ccc12 | 235 to 237 |
| COC(=O)CNc1cc(CS(=O)(=O)C=Cc2c(OC)cc(OC)cc2OC)ccc1OC | 182 to 185 |
| Cc1nn(C)c2[nH]c(=O)c3ccccc3c12 | > 310 |
| COc1nsc2c1C(=O)CCC2 | 45 to 46 |
| O=C(NCCC12CC3CC(CC(C3)C1)C2)c1ccccc1Cl | 125 to 127 |
| COc1ccnc(Nc2nc(-c3cc(-c4ccccc4)no3)cs2)c1 | 177 to 179 |
| CC(C)[C@H](NC(=O)OCc1ccccc1)[C@H](O)C(F)(F)F | 103 to 104 |
| Cc1nn(C)cc1S(N)(=O)=O | 97 to 105 |
| CC(Cn1cnnn1)n1nnc2cc3c(=O)n(C4CC4)nnc3cc2c1=O (configuration not stated) | 233 to 235 |
| CC1(C)Oc2ccc(S(=O)(=O)C(F)(F)C(F)(F)C(F)(F)F)cc2[C@@H](N)[C@@H]1O (relative stereo) | 176 to 177 |
| CCSc1nc(Cl)c2sc3nc(-c4ccccc4)cc(C)c3c2n1 | 150 to 154 |
| Nc1nc(N2CCCC2)c2nc[nH]c2n1 | 265 |

| Compound | melting point [°C] |
| --- | --- |
| CC(=O)NC[C@H]1CN(c2ccc(N3CCC4(CC3)CSCO4)c(F)c2)C(=O)O1 | 114 to 116 |
| Cn1cc(C#N)nc1-c1ncc[nH]1 | 238 to 239 |
| Nc1ccc2c(CCl)cc(O)nc2n1 | > 280 |
| O=c1ccccn1C1=CC(CF)(CF)Oc2ccc(C(F)(F)C(F)(F)C(F)(F)F)cc21 | 101 to 104 |
| FC(F)(F)c1ccc(-c2ccc3[nH]c4c(ccc5cc[nH]c54)c3c2)cc1 | > 250 |
| CCOc1nn(-c2ccc(C(F)(F)F)cn2)cc1CCO | 75 to 76 |
| COC(=O)c1cc(Cl)cc2c1OC(C)C(=O)N2C (configuration not stated) | 128 to 130 |
| CCOC(=O)OCSCC1=C(C(=O)OCC)C(c2cccc([N+](=O)[O-])c2)C(C(=O)OCC)=C(C)N1 (configuration not stated) | 83 to 85 |
| O=c1[nH][nH]c(=O)c2nc3ccccc3cc12 | 345 to 349 |
| CC1(C)Oc2ccc(OC(F)(F)F)cc2[C@@H](NC(=O)c2ccco2)[C@@H]1O (relative stereo) | 146 to 147 |
| N#Cc1c(-c2sc(Cl)c(Cl)c2Cl)[nH]c(C(F)(F)F)c1Br | 221 to 224 |
| O=C(CCCCl)Nc1cn(-c2cccnc2)nc1Cl | 97 to 98 |
| Cc1nc[nH]c1CSCCN=C(NCCSCc1[nH]cnc1C)NC(N)=O | 60 to 70 |
| COC(=O)c1ccn2ncnc2c1 | 125 to 126 |
| COc1ccc(F)c2c1C(=O)c1ccncc1C2=O | > 220 |
| Cc1ccc(C(=O)NCCNC(=O)OC(C)(C)C)s1 | 109 to 110 |
| Cc1ccc(S(=O)(=O)N2CCC[C@H]2CN2CCN(C)CC2)cc1 | 96.5 to 97.7 |
| COc1ccc2c(ccn2-c2ccc(Br)cc2)c1 | 90 to 91 |
| CC(=O)NC[C@H]1CN(c2ccc(N3C[C@@H]4C[C@H]3CO4)c(F)c2)C(=O)O1 | 60 to 65 |
| CN(C)CCc1ccc(NC=O)c2[nH]ncc12 | 210 to 211 |
| c1cnc(NCc2ccc3c(c2)-c2[nH]nc(-c4ccsc4)c2C3)nc1 | 259 to 260 |
| O=C1C(=Cc2ccccc2O)c2ccccc2N1C1=NCCS1 | 196 to 197 |
| CCOC=C1C(=S)c2cc(C)ccc2OC1c1ccccc1 (configuration not stated) | 140 to 142 |

| Compound | melting point [°C] |
| --- | --- |
| Cc1cc(C)c2c(c1)NC(C)C2 (configuration not stated) | 75 |
| CCCCNc1nc(C)cc(Cl)n1 | 35 to 36 |
| CCCCc1ccc(CCc2cc3c(s2)NC(=S)CN=C3c2ccccc2Cl)cc1 | 152 to 154 |
| CC(C)(C)OC(=O)[C@H]1CCCN1S(=O)(=O)c1ccc2c(Cl)cnc(Cl)c2c1 | 80 to 82 |
| NS(=O)(=O)c1cc2c(s1)S(=O)(=O)N(CCO)C(CN1CCOCC1)=C2 | 104 to 108 |
| CC(C)(C)OC(=O)N[C@H]1CC[C@@H](NC(=O)OC(C)(C)C)CC1 | 144 |
| Cn1cc(-c2cc(-c3cnc4c(c3)CCN4)ccn2)n(-c2ccc(C(C)(C)C#N)cc2)c1=O | 247 |
| NC1=CC(=O)CC(c2c(Cl)cccc2Cl)C1 (configuration not stated) | 216 to 217 |
| Cc1cc(C#N)cc(C(=O)Nc2ccn(C)n2)n1 | 201 |
| COc1ccc(-c2nc(CN3CCCCC3)nc3cc(OC)c(OC)cc23)cc1OC | 130 to 132 |
| CCSc1sc(C(=O)N2CCCC2)c2c1C(=O)CC(C)(C)C2 | 129 to 132 |
| CS(=O)(=O)Nc1cc2oc(Br)c(NC=O)c(=O)c2cc1Oc1ccccc1 | 237 to 238 |
| CC(=O)OCC1OC(n2c(F)nc3c(N)ncnc32)C(OC(C)=O)C1OC(C)=O (configuration not stated) | 98 to 101 |
| Cc1cc2c(C=O)c3ccccc3c(C=O)c2cc1C | 203 to 204 |
| COP(=O)(Nc1ccc(N)cc1)OC | 125 |
| O=C1Nc2ccc(Cl)cc2C(c2ccccc2)=NC1OCCc1ccc(O)cc1 (configuration not stated) | 222 to 230 |
| OC[C@@H]1CCCN1Cc1cc2cc3c(cc2c2cc(OCc4ccccc4)ccc12)OCO3 | 122 to 124 |
| COc1cc(C(=O)CC(=O)C(C)(C)C)cc(OC)c1OC | 67.3 to 68.4 |
| COc1ccc(OCC2NCCS2)cc1 (configuration not stated) | 54 to 55 |
| CC(C)c1ccc(S(=O)(=O)Nc2ccc(N3CCC(NCC(O)COc4ccc(O)c(S(C)=O)c4)CC3)nc2)cc1 (configuration not stated) | 128 to 130 |
| CC(C)(C)n1c(=O)c2c(-c3ccc(F)cc3)ncn2c2ccccc21 | 135 to 137 |
| COC(=O)[C@@H]1C[C@H](OC(=O)c2ccsc2)C(=O)[C@H]2[C@@]1(C)CC[C@H]1C(=O)O[C@H](c3ccoc3)C[C@]21C | 211 to 212 |

Continued, values first:

| melting point [°C] | Compound |
| --- | --- |
| 84 | Cc1c(CCCCCCC(=O)O)cccc1C(=O)c1ccc(Cl)cc1 |
| 151 to 154 | O=C(O)C1C=CCN2C(=O)C(CCS)(Cc3ccccc3)C(=O)N12 (configuration not stated) |
| 104 to 106 | O=C(CC[C@H](NC(=O)OCc1ccccc1)C(=O)OCc1ccccc1)ON1C(=O)CCC1=O |
| 85 to 90 | CS(=O)(=O)c1ccc(-c2cnn(-c3cccc(Cl)c3)c(=O)c2C2CCCCC2)cc1 |
| 117 to 122 | O=C(Nc1cc(Cc2n[nH]c(=O)c3ccccc23)ccc1N1CCOCC1)c1cccc(CCl)c1 |
| 287 to 289 | COc1ccc(-c2n[nH]c(-c3cccc(C(=O)O)c3)n2)cc1 |
| 182 | CCCCOc1ccc(S(=O)(=O)C2(C(=O)O)CCN(CCCC)CC2)cc1 |
| 121 to 122 | Cc1oc(-c2ccccc2)nc1COc1ccc(Sc2nc(-c3ccccc3)c(CCC(=O)O)s2)cc1 |
| 173 to 174 | CC(=O)Oc1c(Oc2ccccc2)c(Oc2ccccc2)c(OC(C)=O)c2ccccc12 |
| 121 | O=S1(=O)c2ccccc2C(c2ccccc2)N1CCCl (configuration not stated) |
| 168 to 175 | ON=C(c1ccccc1F)c1ccc(O)c(Cl)c1Cl |
| 148 to 150 | CC(=O)Nc1ccc(Sc2cccn3nc(Cl)nc23)cc1 |
| 180 to 183 | Oc1cccc2cc(-c3ccc(OCCN4CCCC4)cc3)sc12 |
| 190 | Fc1ccccc1C1CCC(=S)Nc2ccc(Cl)cc21 (configuration not stated) |
| 173 to 174 | O=c1cc(-c2cccs2)oc2cccc(OCCOc3ccccc3)c12 |
| 332 to 334 | CCn1cc(C(=O)O)c(=O)c2c1SC(=NO)C2 |
| 179 | CCc1c(Cl)c2ccccn2c1C(=O)c1ccc(O)cc1 |

| melting point [°C] | Compound |
| --- | --- |
| 104 to 108 | O=C(O)c1ccc(OCCNC(=O)C2Cc3ccccc3N2S(=O)(=O)c2ccc(-c3cccc(C(F)(F)F)c3)cc2)cc1Cl (configuration not stated) |
| 245 to 247 | COc1ccc2nc3ccc(OC)cc3c(C(=O)Oc3c(Br)cccc3Br)c2c1 |
| 150 to 153 | COc1ccc(Cn2cc3nc(Cl)nc(OCc4ccccc4)c3n2)cc1 |
| 182 to 183 | CCCCCCCCc1ccc(OCC(=O)Cn2cc(C(=O)O)c3ccccc32)cc1 |
| 120 to 121 | CC(=O)Nc1nc(CCc2ccc(N)cc2)c(C(=O)NCc2ccc([N+](=O)[O-])cc2)s1 |
| 176 to 178 | COCCOc1ccc(/C=C/C(=O)O)c(OCc2ccc(Cl)cc2Cl)c1 |
| 185 to 187 | O=C(O)CCCCCc1c(-c2cccnc2)[nH]c2ccc(O)cc12 |
| > 260 | CN(c1cccc(C(=O)O)c1)c1ccc(-c2ccc(C(=N)N)cc2)nn1 |
| 99 to 101 | O=C1CCc2ccc(OCc3ccccc3)cc21 |
| 294 to 296 | NC(=O)c1cn(-c2ccc(F)cc2)c2cc(Cl)ccc2c1=O |
| 197 to 198 | O=C(O)c1ccccc1N1CCN(c2cccc(C(F)(F)F)c2)C1=O |
| 148 to 150 | CCN(CC)CCNC(=O)c1cccc2c(=O)c3cccc(I)c3[nH]c12 |
| 248 to 252 | Cc1c(CCc2ccccc2)c(=O)oc2cc(O)cc(O)c12 |
| 187 | Cc1cccc(S(=O)(=O)NC(=O)NCCCCCCN)c1 |
| 282 to 288 | Cn1cc(C=C2SC(=S)N(CC(=O)O)C2=O)c2ccccc21 |
| 149 to 151 | Cc1cccc(C(=O)NC(C)C)c1N |
| 86 to 87 | Clc1ccc(C(CBr)OC2CCCC(COc3ccc(Cl)cc3Cl)O2)cc1 (configuration not stated) |
